pIC50: −log10 of the molar value.
System: 695427-040-R-J1-PDC complex spheroid viability
Test: Anticancer human tumor 695427-040-R-J1-PDC patient-derived colon adenocarcinoma cell line growth inhibition [RAS]
Conditions: for pIC50: curve of first compound; for viability, T/C: stronger effect = lower value; active means viability on the fitted dose curve at most 10% of control; inactive means the rest
Method in brief: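 Multi-cell-type spheroids: tumor cells plus HUVEC endothelial cells and mesenchymal stem cells. RAS-pathway inhibitors were combined with targeted agents, each dosed in half-log steps down from clinical Cmax, or from 10 microM when Cmax was unknown.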

[1] = second compound 0.0316 µM, first compound 0.0316 µM
[2] = second compound 0.0316 µM, first compound 0.1 µM
[3] = second compound 0.1 µM, first compound 0.0316 µM
[4] = second compound 0.1 µM, first compound 0.1 µM
[5] = second compound 0.316 µM, first compound 0.0316 µM
[6] = second compound 0.316 µM, first compound 0.1 µM
[7] = second compound 1 µM, first compound 0.0316 µM
[8] = second compound 1 µM, first compound 0.1 µM
[9] = second compound 3.16 µM, first compound 0.0316 µM
[10] = second compound 3.16 µM, first compound 0.1 µM
[11] = second compound 10 µM, first compound 0.0316 µM
[12] = second compound 10 µM, first compound 0.1 µM
[13] = second compound 0.0316 µM, first compound 0.316 µM
[14] = second compound 0.0316 µM, first compound 1 µM
[15] = second compound 0.0316 µM, first compound 3.16 µM
[16] = second compound 0.0316 µM, first compound 10 µM
[17] = second compound 0.1 µM, first compound 0.316 µM
[18] = second compound 0.1 µM, first compound 1 µM
[19] = second compound 0.1 µM, first compound 3.16 µM
[20] = second compound 0.1 µM, first compound 10 µM
[21] = second compound 0.316 µM, first compound 0.316 µM
[22] = second compound 0.316 µM, first compound 1 µM
[23] = second compound 0.316 µM, first compound 3.16 µM
[24] = second compound 0.316 µM, first compound 10 µM
[25] = second compound 1 µM, first compound 0.316 µM
[26] = second compound 1 µM, first compound 1 µM
[27] = second compound 1 µM, first compound 3.16 µM
[28] = second compound 1 µM, first compound 10 µM
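Further: viability read after seven days of drug exposure.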
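Wherever viability, T/C is given: 100% = DMSO vehicle control viability.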

CC(C)n1nc(-c2ccc3oc(N)nc3c2)c2c(N)ncnc21 + C#Cc1c(F)ccc2cc(O)cc(-c3ncc4c(N5CC6CCC(C5)N6)nc(OCC56CCCN5CC(F)C6)nc4c3F)c12
inactive: viability, T/C (second compound 0.0316 µM, first compound 0.000316 µM) 105% | viability, T/C (second compound 0.0316 µM, first compound 0.001 µM) 95.1% | viability, T/C (second compound 0.0316 µM, first compound 0.00316 µM) 88.5% | viability, T/C (second compound 0.0316 µM, first compound 0.01 µM) 75.7% | viability, T/C [1] 70.3% | viability, T/C [2] 62.6% | viability, T/C (second compound 0.1 µM, first compound 0.000316 µM) 93.9% | viability, T/C (second compound 0.1 µM, first compound 0.001 µM) 89.4% | viability, T/C (second compound 0.1 µM, first compound 0.00316 µM) 90% | viability, T/C (second compound 0.1 µM, first compound 0.01 µM) 74.9% | viability, T/C [3] 74.7% | viability, T/C [4] 55.9% | viability, T/C (second compound 0.316 µM, first compound 0.000316 µM) 91.9% | viability, T/C (second compound 0.316 µM, first compound 0.001 µM) 80.9% | viability, T/C (second compound 0.316 µM, first compound 0.00316 µM) 78.6% | viability, T/C (second compound 0.316 µM, first compound 0.01 µM) 68.8% | viability, T/C [5] 61.5% | viability, T/C [6] 50.5% | viability, T/C (second compound 1 µM, first compound 0.000316 µM) 69.5% | viability, T/C (second compound 1 µM, first compound 0.001 µM) 64.3% | viability, T/C (second compound 1 µM, first compound 0.00316 µM) 63% | viability, T/C (second compound 1 µM, first compound 0.01 µM) 52.4% | viability, T/C [7] 47.8% | viability, T/C [8] 42.1% | viability, T/C (second compound 3.16 µM, first compound 0.000316 µM) 51.1% | viability, T/C (second compound 3.16 µM, first compound 0.001 µM) 58.7% | viability, T/C (second compound 3.16 µM, first compound 0.00316 µM) 47.4% | viability, T/C (second compound 3.16 µM, first compound 0.01 µM) 42.1% | viability, T/C [9] 35.4% | viability, T/C [10] 26.7% | viability, T/C (second compound 10 µM, first compound 0.000316 µM) 41.5% | viability, T/C (second compound 10 µM, first compound 0.001 µM) 33.5% | viability, T/C (second compound 10 µM, first compound 0.00316 µM) 35% | viability, T/C (second compound 10 µM, first compound 0.01 µM) 27% | viability, T/C [11] 25% | viability, T/C [12] 14.5%
< 7.00: pIC50 (second compound 0.0316 µM) | pIC50 (second compound 0.1 µM) | pIC50 (second compound 0.316 µM)
8.56: pIC50 (second compound 3.16 µM)
> 9.50: pIC50 (second compound 10 µM)
7.65: pIC50 (second compound 1 µM)

C[C@@H](NC(=O)c1ncnc(N)c1Cl)c1ncc(C(=O)Nc2cc(C(F)(F)F)c(Cl)cn2)s1 + C=CC(=O)N1CCN(c2nc(OCC3CCCN3C)nc3c(F)c(-c4nc(N)cc(C)c4C(F)(F)F)c(Cl)cc23)C(C)C1
< 5.00: pIC50 (second compound 0.00316 µM) | pIC50 (second compound 0.01 µM) | pIC50 (second compound 0.0316 µM) | pIC50 (second compound 0.1 µM) | pIC50 (second compound 0.316 µM) | pIC50 (second compound 1 µM)
inactive: viability, T/C (second compound 0.00316 µM, first compound 0.0316 µM) 108% | viability, T/C (second compound 0.00316 µM, first compound 0.1 µM) 109% | viability, T/C (second compound 0.00316 µM, first compound 0.316 µM) 111% | viability, T/C (second compound 0.00316 µM, first compound 1 µM) 105% | viability, T/C (second compound 0.00316 µM, first compound 3.16 µM) 99.7% | viability, T/C (second compound 0.00316 µM, first compound 10 µM) 75.2% | viability, T/C (second compound 0.01 µM, first compound 0.0316 µM) 121% | viability, T/C (second compound 0.01 µM, first compound 0.1 µM) 109% | viability, T/C (second compound 0.01 µM, first compound 0.316 µM) 114% | viability, T/C (second compound 0.01 µM, first compound 1 µM) 103% | viability, T/C (second compound 0.01 µM, first compound 3.16 µM) 96.2% | viability, T/C (second compound 0.01 µM, first compound 10 µM) 75.9% | viability, T/C [1] 107% | viability, T/C [2] 99.8% | viability, T/C [13] 104% | viability, T/C [14] 101% | viability, T/C [15] 94.4% | viability, T/C [16] 75.9% | viability, T/C [3] 113% | viability, T/C [4] 105% | viability, T/C [17] 99.8% | viability, T/C [18] 101% | viability, T/C [19] 98.4% | viability, T/C [20] 73.1% | viability, T/C [5] 110% | viability, T/C [6] 105% | viability, T/C [21] 108% | viability, T/C [22] 105% | viability, T/C [23] 103% | viability, T/C [24] 76.6% | viability, T/C [7] 108% | viability, T/C [8] 94.4% | viability, T/C [25] 103% | viability, T/C [26] 95.5% | viability, T/C [27] 92.6% | viability, T/C [28] 72.9%

CC1(O)CCCC1n1c(=O)c(C(F)F)cc2cnc(NC3CCN(S(C)(=O)=O)CC3)nc21 (stereo unspecified) + C#Cc1c(F)ccc2cc(O)cc(-c3ncc4c(N5CC6CCC(C5)N6)nc(OCC56CCCN5CC(F)C6)nc4c3F)c12
5.14: pIC50 (second compound 1 µM)
< 5.00: pIC50 (second compound 0.0316 µM) | pIC50 (second compound 0.1 µM)
5.37: pIC50 (second compound 3.16 µM)
5.05: pIC50 (second compound 0.316 µM)
inactive: viability, T/C [1] 95.4% | viability, T/C [2] 95.5% | viability, T/C [13] 103% | viability, T/C [14] 123% | viability, T/C [15] 122% | viability, T/C [16] 57.4% | viability, T/C [3] 104% | viability, T/C [4] 94.7% | viability, T/C [17] 109% | viability, T/C [18] 120% | viability, T/C [19] 114% | viability, T/C [20] 52.5% | viability, T/C [5] 84% | viability, T/C [6] 80.6% | viability, T/C [21] 97.6% | viability, T/C [22] 103% | viability, T/C [23] 104% | viability, T/C [24] 45.4% | viability, T/C [7] 82.7% | viability, T/C [8] 75.3% | viability, T/C [25] 78.7% | viability, T/C [26] 89.8% | viability, T/C [27] 84.2% | viability, T/C [28] 38.1% | viability, T/C [9] 59.7% | viability, T/C [10] 54.7% | viability, T/C (second compound 3.16 µM, first compound 0.316 µM) 64.3% | viability, T/C (second compound 3.16 µM, first compound 1 µM) 57.4% | viability, T/C (second compound 3.16 µM, first compound 3.16 µM) 57.3% | viability, T/C (second compound 3.16 µM, first compound 10 µM) 30% | viability, T/C [11] 42.9% | viability, T/C [12] 41.9% | viability, T/C (second compound 10 µM, first compound 0.316 µM) 42.1% | viability, T/C (second compound 10 µM, first compound 1 µM) 43.4% | viability, T/C (second compound 10 µM, first compound 3.16 µM) 36.1% | viability, T/C (second compound 10 µM, first compound 10 µM) 15.6%
> 7.50: pIC50 (second compound 10 µM)

Source: PubChem BioAssay AID2060888 (Molecular Pharmacology Branch, DTP, NCI, 2025)
